Data: PMC4492764, “Evaluation of biomarkers for in vitro prediction of drug-induced nephrotoxicity: comparison of HK-2, immortalized human proximal tubule epithelial, and primary cultures of human proximal tubular cells” (Pharmacology Research & Perspectives, 2015)
“Also recorded” adds a separate entry of the source.

Key:
Assay type in all cases: cell-based, human
[1] = test system: NGAL mRNA; experiment: NGAL mRNA qRT-PCR in hRPTECs; parameters: key to Upregulation of NGAL hRPTECs R: +: statistically significant increase; −: no significant increase
Protocol: (§1) HK-2 cells (ATCC CRL-2190; Manassas, VA) were maintained in DMEM/F12 (Life Technologies; Sydney, NSW, Australia) supplemented with 5 μg/mL insulin, 5 μg/mL transferrin, 5 ng/mL sodium selenite (ITS; Roche; […] (passage 2) and culture kits were purchased from Lonza. […] were maintained in Renal Epithelial Cell BulletKitTM (CC-3190, Lonza) at 37°C and 5% CO2 atmosphere. Cells were passaged to 96-well plates with a density of 4000 cells/well. After 24 h culture, compounds with different concentration series were added into each well and incubated for 4, 24, 48, and 72 h. HK-2 and […] were treated with compounds for 4, 24, 48, and 72 h, then the cells were lysed and the RNA reverse transcribed with the TaqMan® Gene Expression Cells-to-CTTM Kit (Life Technologies) according to the manufacturer's instructions. […] Hs00273334_m1), Lcn2 (NGAL; Hs01008571_m1), and Csf1 (M-CSF; Hs00174164_m1). All probes span an exon-exon junction. The real-time quantitative reverse transcription PCR (qRT-PCR) was performed in a 10 μl final reaction mixture using a ViiA 7TM system (Applied Biosystems®, Sydney, NSW, Australia) based on the following thermo cycling conditions: 10 min at 95°C for one cycle, 15 sec at 95°C, 60 sec at 60°C for 40 cycles. The ViiA 7TM software was used for data analysis with Hprt1 expression used for normalization. All assays were performed at least three times, with at least two technical replicates in each assay.

[2] = test system: KIM-1 mRNA; experiment: KIM-1 mRNA qRT-PCR in HK-2 cells; parameters: key to Upregulation of KIM-1 HK-2 R: +: statistically significant increase; −: no significant increase
Protocol: as §1

[3] = MTT cytotoxicity assay in HK-2 cells; details: human, HK-2 cells; 72 h incubation; Mean ± Standard deviation, n = 3
Protocol: (§2) For the MTT assay, the medium was then removed, the dried crystals were resuspended in 60 μL of Dimethyl sulfoxide (DMSO), and the absorbance was read at 570 nm. For the resazurin assay, the fluorescence intensity was read using a PolarStar Omega plate reader (BMG Labtech; Mornington VIC, Australia) at excitation/emission 560/590 nm. All assays were performed at least three times. […] La Jolla, CA). Both MTT and resazurin assays were performed three times, with two technical replicates in each assay.

[4] = test system: NGAL; experiment: NGAL protein ELISA in hRPTECs; parameters: key to Upregulation of NGAL hRPTECs P: +: statistically significant increase; −: no significant increase; details: for NGAL protein in hRPTEC culture medium: 24 h
Protocol: (§3) HK-2 cells (ATCC CRL-2190; Manassas, VA) were maintained in DMEM/F12 (Life Technologies; Sydney, NSW, Australia) supplemented with 5 μg/mL insulin, 5 μg/mL transferrin, 5 ng/mL sodium selenite (ITS; Roche; […] (passage 2) and culture kits were purchased from Lonza. […] were maintained in Renal Epithelial Cell BulletKitTM (CC-3190, Lonza) at 37°C and 5% CO2 atmosphere. Cells were passaged to 96-well plates with a density of 4000 cells/well. After 24 h culture, compounds with different concentration series were added into each well and incubated for 4, 24, 48, and 72 h. KIM-1 (DY1750), NGAL (DY1757), and M-CSF (DY216) Duo-Set® ELISA kits were purchased from R&D systems (Minneapolis, MN). Sandwich-ELISA experiments were conducted following the manufacturer's instructions with slight modifications. A 96-well microplate (MaxiSorp®, Nunc, Thermo Scientific, NSW, Australia) was coated with 100 μL of capture antibodies (diluted 1:200 in PBS) and incubated overnight. The plate was then washed twice with washing buffer (0.05% Tween 20 in PBS, pH 7.4) and blocked by adding 300 μL of blocking buffer (1% bovine serum albumin (BSA) in PBS) for 1 h at room temperature. After washing two times with PBS, 100 μL of samples (cell culture media or cell lysates) or standards were then added to each well and incubated for 2 h at room temperature. The biotinylated detection antibodies were then diluted in blocking buffer, added to each well and incubated for 2 h. Horseradish peroxidase (HRP)-labeled streptavidin (100 μL) was then added to bind to detection antibodies. To each well, 100 μL of substrate solution (1:1 mixture of H2O2 and tetramethylbenzidine) was added and incubated for 20 min before reaction termination with 50 μL of stop solution (2N H2SO4). The optical density of each well was measured at 450 nm using a POLARstar Omega plate reader (BMG Labtech). All assays were performed at least three times, with at least two technical replicates in each assay.

[5] = test system: NGAL; experiment: NGAL protein ELISA in HK-2 cells; parameters: key: +: statistically significant increase; −: no significant increase; details: protein levels in culture medium; 72 h time point
Protocol: as §3

[6] = test system: KIM-1 mRNA; experiment: KIM-1 mRNA qRT-PCR in hRPTECs; parameters: key to Upregulation of KIM-1 hRPTECs R: +: statistically significant increase; −: no significant increase
Protocol: as §1

[7] = MTT cytotoxicity assay in hRPTECs; details: human, hRPTECs (passage 2); 72 h incubation; Mean ± Standard deviation, n = 3
Protocol: as §2

[8] = test system: KIM-1; experiment: KIM-1 protein ELISA in hRPTECs; parameters: key to Upregulation of KIM-1 hRPTECs P: +: statistically significant increase; −: no significant increase
Protocol: as §3

[9] = test system: NGAL mRNA; experiment: NGAL mRNA qRT-PCR in HK-2 cells; parameters: key to Upregulation of NGAL HK-2 R: +: statistically significant increase; −: no significant increase; details: mRNA levels; 72 h time point
Protocol: as §1

[10] = Resazurin cytotoxicity assay in HK-2 cells; details: human, HK-2 cells; 72 h incubation; Mean ± Standard deviation, n = 3
Protocol: as §2

[11] = test system: KIM-1; experiment: KIM-1 protein ELISA in HK-2 cells; parameters: key: +: statistically significant increase; −: no significant increase; details: protein levels in culture medium; 72 h time point
Protocol: as §3

[12] = Resazurin cytotoxicity assay in hRPTECs; details: human, hRPTECs (passage 2); 72 h incubation; Mean ± Standard deviation, n = 3
Protocol: as §2

[13] = test system: M-CSF mRNA; experiment: M-CSF mRNA qRT-PCR in hRPTECs; details: 72 h (Fig.4C)
Protocol: Hs00273334_m1), Lcn2 (NGAL; Hs01008571_m1), and Csf1 (M-CSF; Hs00174164_m1). All probes span an exon-exon junction. The real-time quantitative reverse transcription PCR (qRT-PCR) was performed in a 10 μl final reaction mixture using a ViiA 7TM system (Applied Biosystems®, Sydney, NSW, Australia) based on the following thermo cycling conditions: 10 min at 95°C for one cycle, 15 sec at 95°C, 60 sec at 60°C for 40 cycles. The ViiA 7TM software was used for data analysis with Hprt1 expression used for normalization. All assays were performed at least three times, with at least two technical replicates in each assay.

[14] = protein levels in culture medium, 72 h time point

Row | Compound | Upregulation of NGAL hRPTECs R ([1]; mRNA levels, 72 h time point) | Upregulation of KIM-1 HK-2 R ([2]; mRNA levels, 72 h time point) | CC50 at 72 h [3] | NGAL protein in hRPTEC culture medium [4] | Upregulation of NGAL hRPTECs P [4, 14] | Upregulation of NGAL HK-2 P [5] | Upregulation of KIM-1 hRPTECs R ([6]; mRNA levels, 72 h time point) | CC50 at 72 h [7] | KIM-1 protein upregulation in hRPTECs ([8]; 4 h, culture medium (Fig. S5A)) | Upregulation of KIM-1 hRPTECs P [8, 14] | Upregulation of NGAL HK-2 R [9] | CC50 at 72 h [10] | Upregulation of KIM-1 HK-2 P [11] | CC50 at 72 h [12] | NGAL mRNA levels in hRPTECs ([1]; 72 h exposure, 1 μmol/L (high dose), P < 0.001) | KIM-1 mRNA transcription level in HK-2 cells ([2]; 72 h, P < 0.005) | M-CSF mRNA levels in hRPTECs [13] | KIM-1 mRNA in hRPTECs ([6]; 72 h, high dose)
1 | C[C@@H]1[C@H](O)[C@@H](C)/C=C/C=C/C=C/C=C/C=C/C=C/C=C/[C@H](O[C@@H]2O[C@H](C)[C@@H](O)[C@H](N)[C@@H]2O)C[C@@H]2O[C@](O)(C[C@@H](O)C[C@@H](O)[C@H](O)CC[C@@H](O)C[C@@H](O)CC(=O)O[C@H]1C)C[C@H](O)[C@H]2C(=O)O [AmB, amphotericin B] | − | − | > 50 µM | increases | + | − | − | > 50 µM | significant upregulation | + | − | 20 ± 3 µM | − | 6 ± 1 µM |  |  |  | 
2 | COc1cccc2c1C(=O)c1c(O)c3c(c(O)c1C2=O)C[C@@](O)(C(=O)CO)C[C@@H]3O[C@H]1C[C@H](N)[C@H](O)[C@H](C)O1 [Doxorubicin, doxorubicin] |  |  | > 50 µM | increases |  |  |  | > 50 µM |  |  |  | 2.1 ± 1 µM |  | 5.2 ± 1 µM | kept rising; also recorded: significant induction | increased | significant results; also recorded: significant induction | stimulation; also recorded: significant induction
